Test results published in patent US9693556B2, “Herbicidal pyridazinone derivatives” (SYNGENTA LIMITED, priority 2011, dated 2017).

Tests used:
Assay type in all cases: in vivo
[1] = system: Ipomoea hederacea (IPOHE); assay: Post-emergence herbicidal glasshouse test on Ipomoea hederacea
How it was run: (§1)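 Application rate 1000 g/h, formulated in acetone/water (50:50) with 0.5% Tween 20 and sprayed onto pots sown 1 day (pre-emergence) or 8 days (post-emergence) earlier. Evaluation at 13 days rated damage from 1 (0-19%) to 5 (80-100%).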

[2] = system: Amaranthus retoflexus (AMARE); assay: Pre-emergence herbicidal glasshouse test on Amaranthus retoflexus
How it was run: as §1

[3] = system: Alopecurus myosuroides (ALOMY); assay: Post-emergence herbicidal glasshouse test on Alopecurus myosuroides
How it was run: as §1

Solanum nigrum (SOLNI) [4] = assay: Post-emergence herbicidal glasshouse test on Solanum nigrum
How it was run: as §1

Setaria faberi (SETFA) [5] = assay: Pre-emergence herbicidal glasshouse test on Setaria faberi
How it was run: as §1

[6] = system: Echinochloa crus-galli (ECHCG); assay: Post-emergence herbicidal glasshouse test on Echinochloa crus-galli
How it was run: as §1

[7] = system: Alopecurus myosuroides (ALOMY); assay: Pre-emergence herbicidal glasshouse test on Alopecurus myosuroides
How it was run: as §1

Setaria faberi (SETFA) [8] = assay: Post-emergence herbicidal glasshouse test on Setaria faberi
How it was run: as §1

Solanum nigrum (SOLNI) [9] = assay: Pre-emergence herbicidal glasshouse test on Solanum nigrum
How it was run: as §1

[10] = system: Ipomoea hederacea (IPOHE); assay: Pre-emergence herbicidal glasshouse test on Ipomoea hederacea
How it was run: as §1

[11] = system: Echinochloa crus-galli (ECHCG); assay: Pre-emergence herbicidal glasshouse test on Echinochloa crus-galli
How it was run: as §1

[12] = system: Amaranthus retoflexus (AMARE); assay: Post-emergence herbicidal glasshouse test on Amaranthus retoflexus
How it was run: as §1

[13] = post-emergence, 1000 g/h, evaluated after 13 days, five point scale
[14] = pre-emergence, 1000 g/h, evaluated after 13 days, five point scale
[15] = post-emergence, 1000 g/h, evaluated after 13 days
[16] = pre-emergence, 1000 g/h, evaluated after 13 days

SMILES	POST Application IPOHE herbicidal damage (five point scale) [1, 15]	PRE Application AMARE herbicidal damage (five point scale) [2, 16]	POST Application ALOMY herbicidal damage (five point scale) [3, 15]	POST Application SOLNI herbicidal damage (five point scale) (Solanum nigrum (SOLNI) [4]; [15])	PRE Application SETFA herbicidal damage (five point scale) (Setaria faberi (SETFA) [5]; [16])	POST Application ECHCG herbicidal damage (five point scale) [6, 15]	PRE Application ALOMY herbicidal damage (five point scale) [7, 16]	POST Application SETFA herbicidal damage (five point scale) (Setaria faberi (SETFA) [8]; [15])	PRE Application SOLNI herbicidal damage (five point scale) (Solanum nigrum (SOLNI) [9]; [16])	PRE Application IPOHE herbicidal damage (five point scale) [10, 16]	PRE Application ECHCG herbicidal damage (five point scale) [11, 16]	POST Application AMARE herbicidal damage (five point scale) [12, 15]	further results
COc1nccc(-c2cnn(C)c(=O)c2O)c1Cl [Compound 1.150]	–	–	–	–	–	–	–	–	–	–	–	–	herbicidal damage, POST Application IPOHE [1, 13]: 1 (1=0-19% damage); herbicidal damage, PRE Application AMARE [2, 14]: 2 (2=20-39% damage); herbicidal damage, POST Application ALOMY [3, 13]: 1 (1=0-19% damage); herbicidal damage, POST Application SOLNI (Solanum nigrum (SOLNI) [4]; [13]): 4 (4=60-79% damage); herbicidal damage, PRE Application SETFA (Setaria faberi (SETFA) [5]; [14]): 1 (1=0-19% damage); herbicidal damage, POST Application ECHCG [6, 13]: 1 (1=0-19% damage); herbicidal damage, PRE Application ALOMY [7, 14]: 1 (1=0-19% damage); herbicidal damage, POST Application SETFA (Setaria faberi (SETFA) [8]; [13]): 1 (1=0-19% damage); herbicidal damage, PRE Application SOLNI (Solanum nigrum (SOLNI) [9]; [14]): 1 (1=0-19% damage); herbicidal damage, PRE Application IPOHE [10, 14]: 2 (2=20-39% damage); herbicidal damage, PRE Application ECHCG [11, 14]: 1 (1=0-19% damage); herbicidal damage, POST Application AMARE [12, 13]: 1 (1=0-19% damage)
CCSC(=O)Oc1c(-c2ccc(C(F)(F)F)cc2S(C)(=O)=O)cnn(C)c1=O [Compound 3.004, [2-methyl-5-[2-methylsulfonyl-4-(trifluoromethyl)phenyl]-3-oxo-pyridazin-4-yl]ethylsulfanylformate]	5 (5=80-100% damage)	5 (5=80-100% damage)	5 (5=80-100% damage)	5 (5=80-100% damage)	5 (5=80-100% damage)	5 (5=80-100% damage)	5 (5=80-100% damage)	5 (5=80-100% damage)	5 (5=80-100% damage)	5 (5=80-100% damage)	5 (5=80-100% damage)	5 (5=80-100% damage)	–
COc1ccc(Cn2ncc(-c3ccc(S(C)(=O)=O)c(C4=NOCC4)c3C)c(O)c2=O)cc1 [Compound 1.002]	2 (2=20-39% damage)	1 (1=0-19% damage)	1 (1=0-19% damage)	5 (5=80-100% damage)	1 (1=0-19% damage)	1 (1=0-19% damage)	1 (1=0-19% damage)	1 (1=0-19% damage)	1 (1=0-19% damage)	1 (1=0-19% damage)	1 (1=0-19% damage)	3 (3=40-59% damage)	–
Cn1ncc(-n2ccc(C(F)(F)F)c(-c3cccc(Cl)c3Cl)c2=O)c(O)c1=O [Compound 7.029]	4 (4=60-79% damage)	5 (5=80-100% damage)	3 (3=40-59% damage)	5 (5=80-100% damage)	1 (1=0-19% damage)	5 (5=80-100% damage)	2 (2=20-39% damage)	2 (2=20-39% damage)	5 (5=80-100% damage)	1 (1=0-19% damage)	2 (2=20-39% damage)	5 (5=80-100% damage)	–
Cn1ncc(-c2ccc(S(C)(=O)=O)c(C3=NOCC3)c2Cl)c(O)c1=O [Compound 1.032]	5 (5=80-100% damage)	5 (5=80-100% damage)	5 (5=80-100% damage)	5 (5=80-100% damage)	5 (5=80-100% damage)	5 (5=80-100% damage)	5 (5=80-100% damage)	5 (5=80-100% damage)	5 (5=80-100% damage)	4 (4=60-79% damage)	5 (5=80-100% damage)	5 (5=80-100% damage)	–
CCn1ncc(-c2c(Cl)cccc2Cl)c(O)c1=O [Compound 1.011]	2 (2=20-39% damage)	1 (1=0-19% damage)	2 (2=20-39% damage)	4 (4=60-79% damage)	1 (1=0-19% damage)	2 (2=20-39% damage)	1 (1=0-19% damage)	2 (2=20-39% damage)	1 (1=0-19% damage)	1 (1=0-19% damage)	1 (1=0-19% damage)	4 (4=60-79% damage)	–
C=Cn1ncc(-c2ccccc2S(C)(=O)=O)c(O)c1=O [Compound 2.054]	5 (5=80-100% damage)	5 (5=80-100% damage)	5 (5=80-100% damage)	5 (5=80-100% damage)	5 (5=80-100% damage)	5 (5=80-100% damage)	5 (5=80-100% damage)	5 (5=80-100% damage)	5 (5=80-100% damage)	4 (4=60-79% damage)	5 (5=80-100% damage)	5 (5=80-100% damage)	–
CCCn1c(-c2cccc(Cl)c2)ncc(-c2cnn(C)c(=O)c2O)c1=O [Compound 10.002]	–	–	–	–	–	–	–	–	–	–	–	–	POST Application IPOHE ([1]; post-emergence application, Ipomoea hederacea, damage score 1-5): 4 (4=60-79% damage); PRE Application AMARE ([2]; pre-emergence application, Amaranthus retoflexus, damage score 1-5): 4 (4=60-79% damage); POST Application ALOMY ([3]; post-emergence application, Alopecurus myosuroides, damage score 1-5): 1 (1=0-19% damage); POST Application SOLNI (Solanum nigrum (SOLNI) [4]; post-emergence application, Solanum nigrum, damage score 1-5): 5 (5=80-100% damage); PRE Application SETFA (Setaria faberi (SETFA) [5]; pre-emergence application, Setaria faberi, damage score 1-5): 1 (1=0-19% damage); POST Application ECHCG ([6]; post-emergence application, Echinochloa crus-galli, damage score 1-5): 2 (2=20-39% damage); PRE Application ALOMY ([7]; pre-emergence application, Alopecurus myosuroides, damage score 1-5): 1 (1=0-19% damage); POST Application SETFA (Setaria faberi (SETFA) [8]; post-emergence application, Setaria faberi, damage score 1-5): 1 (1=0-19% damage); PRE Application SOLNI (Solanum nigrum (SOLNI) [9]; pre-emergence application, Solanum nigrum, damage score 1-5): 1 (1=0-19% damage); PRE Application IPOHE ([10]; pre-emergence application, Ipomoea hederacea, damage score 1-5): 1 (1=0-19% damage); PRE Application ECHCG ([11]; pre-emergence application, Echinochloa crus-galli, damage score 1-5): 1 (1=0-19% damage); POST Application AMARE ([12]; post-emergence application, Amaranthus retoflexus, damage score 1-5): 5 (5=80-100% damage)
